From patent US20160015619A1, “TRANSPARENT SOL, GEL COMPOSITION CONTAINING HIGH CONCENTRATIONS OF VITAMIN C AND VITAMIN C DERIVATIVE” (ABIO CO., LTD., priority 2013, published 2016)

Assay: Anti-oxidation experiment (DPPH free radical removing capability)
Assay type: biochemical
Method: The free radical removing capability was experimented using the embodiment 4 in Table 5. In case of the DPPH (1,1-diphenyl-2-picrylhydrazyl) used, the radical removing capability of radical sample which changes colors depending on the changes in oxidation/reduction environment was confirmed through the measurements of the O.D. value.
In details, the DPPH experiment sample was prepared by inputting the solution of the embodiment 4 in Table 5 into each well of the 96-well plate by 100 μl. The DPPH was added by 10 μl, and the mixture was placed at a room temperature for 30 minutes, and the absorbance at 517 nm was measured using a micro plate reader. At this time, the solution prepared by adding 10% of the distilled water instead of vitamin C into the solution of the embodiment 4 and the pure vitamin C were used as a control group.

O=C1O[C@H]([C@@H](O)CO)C(O)=C1O [Control group 2 (vitamin C), L-ascorbic acid]
effect on the activation of the anti-oxidation (in words): high effect on the activation of the anti-oxidation
Activation (%) of anti-oxidation (room temperature 30 minutes, absorbance at 517 nm): 90.8%
